Like-named read-outs stand apart in the source and are kept apart here.
Key:
[1] = biological target: T1, Human BACE2 (Homo sapiens, UniProt Q9Y5Z0); assay: TR-FRET assay; type: biochemical; details: enzyme 2.7 μg/mL, substrate 100 nM, pH4.5
T1 construct: the soluble part of the human β-Secretase2 (AA1-AA473) was cloned using BACE2(1-473)-(AVT)-Fc-pDEST12.2 mammalian expression vector; AVT linker (C); made in house
T1 sequence (Q9Y5Z0 21-473): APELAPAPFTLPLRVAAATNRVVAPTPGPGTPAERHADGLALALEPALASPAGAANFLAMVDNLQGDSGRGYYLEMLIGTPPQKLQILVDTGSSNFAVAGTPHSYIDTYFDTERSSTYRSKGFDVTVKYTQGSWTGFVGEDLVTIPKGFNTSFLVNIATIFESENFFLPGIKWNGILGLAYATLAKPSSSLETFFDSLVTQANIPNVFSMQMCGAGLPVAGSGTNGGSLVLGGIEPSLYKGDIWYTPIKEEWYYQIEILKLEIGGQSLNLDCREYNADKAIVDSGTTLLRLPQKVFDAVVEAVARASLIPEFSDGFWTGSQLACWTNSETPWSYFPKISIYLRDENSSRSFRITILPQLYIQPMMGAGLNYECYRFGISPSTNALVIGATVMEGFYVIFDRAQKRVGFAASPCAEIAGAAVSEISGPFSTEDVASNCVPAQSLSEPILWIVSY
Method: (§1) The β-secretase enzyme used in the TR-FRET was prepared as follows:
(§2) Human BACE1: the cDNA for the soluble part of the human β-Secretase1 (AA1-AA460) was cloned using the BACE1(1-460)-(AVT)-Fc-pGEN-IRES-neo mammalian expression vector. The gene was fused to the Fe domain of IgG1 (affinity tag) and stably cloned into HEK 293 cells. […]
(§3) A multidrop Combi was used for the liquid handling. Enzyme (7 μL) was added to the compound plate (containing 0.8 μL of compound in dimethylsulphoxide). The plate was incubated for 10 minutes. Substrate (8 μL) was then added, and the reaction proceeded for 17 minutes at r.t. The reaction was stopped with the addition of Stop solution (5.5 μL, NaOAC, pH 9). Fluorescence was measured on a Pherastar plate reader using HTRF module. […] 5 reference inhibitors with different affinities were used at all screen occasions in dose response.

[2] = system: SH-SY5Y cells; assay: sAPPβ release assay
[3] = biological target: T2, Human BACE1 (Homo sapiens, UniProt P56817); assay: Diluted TR-FRET assay; type: biochemical; details: 50 times less enzyme, 6.5 h reaction time at r.t.; read-out: IC50 BACE1 (dil. TR-FRET)
T2 construct: the soluble part of the human β-Secretase1 (AA1-AA460) was cloned using the BACE1(1-460)-(AVT)-Fc-pGEN-IRES-neo mammalian expression vector; AVT linker (C); made in house
T2 sequence (P56817 22-460): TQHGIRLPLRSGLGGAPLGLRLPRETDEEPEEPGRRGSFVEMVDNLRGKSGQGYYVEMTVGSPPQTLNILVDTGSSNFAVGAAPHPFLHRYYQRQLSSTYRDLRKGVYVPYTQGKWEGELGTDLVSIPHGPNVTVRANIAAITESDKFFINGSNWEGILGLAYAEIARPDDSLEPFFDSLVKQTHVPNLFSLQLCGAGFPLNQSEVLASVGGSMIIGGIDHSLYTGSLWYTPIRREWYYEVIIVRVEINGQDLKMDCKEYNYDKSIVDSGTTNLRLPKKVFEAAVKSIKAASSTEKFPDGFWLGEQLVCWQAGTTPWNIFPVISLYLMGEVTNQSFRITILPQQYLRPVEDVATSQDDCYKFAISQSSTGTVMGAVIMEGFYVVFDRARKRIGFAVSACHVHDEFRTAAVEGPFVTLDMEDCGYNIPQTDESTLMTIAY
Method: as §1, §2
as §3, with “Substrate (8 μL) was then added, and the reaction proceeded for 17 minutes at r.t.” left out

[4] = Homo sapiens, SH-SY5Y, read-out: IC50 Cell (sAPPβ release, nM), SH-SY5Y cells, compounds incubated 16-17 h
[5] = Homo sapiens, SH-SY5Y, read-out: IC50 Cell (sAPPβ release, nM)

Compound: [2H]C1([2H])OC(N)=N[C@]12c1cc(-c3cccnc3F)ccc1C[C@@]21CC[C@H](OC)[C@@H](C)C1 [Compound 5, (1S,1′R,3S,4S)-6′-(2-fluoropyridin-3-yl)-4-methoxy-3-methyl-3′H,5″H-dispiro[cyclohexane-1,2′-indene-1′,4″-oxazol]-5″,5″-d2-2″-amine]
- IC50 [1]: 888 nM
- IC50 [2, 4]: 1.6 nM

Compound: [2H]C1([2H])OC(N)=N[C@]12c1cc(-c3cncc(F)c3)ccc1C[C@@]21CC[C@H](OC)[C@@H](C)C1 [Compound 9, (1S,1′R,3S,4S)-6′-(5-fluoropyridin-3-yl)-4-methoxy-3-methyl-3′H,5″H-dispiro[cyclohexane-1,2′-indene-1′,4″-oxazol]-5″,5″-d2-2″-amine]
- IC50 [1]: 118 nM
- IC50 [2, 4]: 0.5 nM

Compound: COC1CCC2(CC1)Cc1ccc(-c3cc(Cl)cc(C#N)c3)cc1C21COC(N)=N1 (centres unmarked) [Compound 18, 3-((1r,4r)-2″-amino-4-methoxy-3′H,5″H-dispiro[cyclohexane-1,2′-indene-1′,4″-oxazol]-6′-yl-5″,5″-d2)-5-chlorobenzonitrile]
- IC50 ([2]; read-out: IC50 Cell (sAPPβ release), SH-SY5Y cells, compounds incubated 16-17 h): 3.3 nM

Compound: [2H]C1([2H])OC(N)=N[C@]12c1cc(-c3cncc(F)c3)ccc1C[C@]21CC[C@@H](OC)[C@H](C)C1 [Compound 25, (1R,1′R,3R,4R)-6′-(5-fluoropyridin-3-yl)-4-methoxy-3-methyl-3′H,5″H-dispiro[cyclohexane-1,2′-indene-1′,4″-oxazol]-5″,5″-d2-2″-amine]
- IC50 [1]: 135 nM
- IC50 [2, 4]: 1.8 nM

Compound: CO[C@@H]1CC[C@]2(Cc3ccc(-c4cncnc4)cc3[C@@]23COC(N)=N3)C[C@H]1C [Compound 33, (1R,1′R,3R,4R)-4-methoxy-3-methyl-6′-(pyrimidin-5-yl)-3′H,5″H-dispiro[cyclohexane-1,2′-indene-1′,4″-oxazol]-2″-amine]
- IC50 [2, 5]: 2.2 nM

Compound: [2H]C1([2H])OC(N)=NC12c1cc(-c3cc(C#N)cc(OC)c3)ccc1C[C@]21CC[C@@H](OC)CC1 (some centres unmarked) [Compound 36, 3-((1r,4r)-2″-amino-4-methoxy-3′H,5″H-dispiro[cyclohexane-1,2′-indene-1′,4″-oxazol]-6′-yl-5″,5″-d2)-5-methoxybenzonitrile]
- IC50 [2, 5]: 4 nM

Compound: CO[C@H]1CC[C@]2(CC1)Cc1ccc(-c3cncc(C)c3)cc1C21COC(N)=N1 (some centres unmarked) [Compound 41, (1r,4r)-4-methoxy-6′-(5-methylpyridin-3-yl)-3′H,5″H-dispiro[cyclohexane-1,2′-indene-1′,4″-oxazol]-2″-amine]
- IC50 [2, 5]: 5.1 nM

Compound: CO[C@H]1CC[C@]2(CC1)Cc1ccc(-c3cncnc3)cc1[C@@]21COC(N)=N1 [Compound 47, (1r,1′R,4R)-4-methoxy-6′-(pyrimidin-5-yl)-3′H,5″H-dispiro[cyclohexane-1,2′-indene-1′,4″-oxazol]-2″-amine]
- IC50 [3]: 152 nM
- IC50 [2, 5]: 9.1 nM

Compound: CO[C@H]1CC[C@]2(CC1)Cc1ccc(-c3cncnc3)cc1C21COC(N)=N1 (some centres unmarked) [Compound 50, (1r,4r)-4-methoxy-6′-(pyrimidin-5-yl)-3′H,5″H-dispiro[cyclohexane-1,2′-indene-1′,4″-oxazol]-2″-amine]
- IC50 [3]: 579 nM
- IC50 [2, 5]: 16 nM

Compound: [2H]C([2H])([2H])O[C@H]1CC[C@@]2(Cc3ccc(-c4cncc(F)c4)cc3[C@]23N=C(N)OC3([2H])[2H])C[C@@H]1C [Compound 66, (1S,1′R,3S,4S)-6′-(5-fluoropyridin-3-yl)-4-(methoxy-d3)-3-methyl-3′H,5″H-dispiro[cyclohexane-1,2′-indene-1′,4″-oxazol]-5″,5″-d2-2″-amine]
- IC50 [1]: 134 nM
- IC50 [2, 4]: < 0.16 nM

Compound: [2H]C1([2H])OC(N)=N[C@]12c1cc(-c3cccnc3F)ccc1C[C@]21CC[C@@H](OC)[C@H](C)C1 [Compound 67, (1R,1′R,3R,4R)-6′-(2-fluoropyridin-3-yl)-4-methoxy-3-methyl-3′H,5″H-dispiro[cyclohexane-1,2′-indene-1′,4″-oxazol]-5″,5″-d2-2″-amine]
- IC50 [1]: 736 nM
- IC50 [2, 4]: 1.7 nM

Compound: [2H]C1([2H])OC(N)=N[C@]12c1cc(-c3cncnc3)ccc1C[C@@]21CC[C@H](OC)[C@@H](CC)C1 [Compound 68, (1S,1′R,3S,4S)-3-ethyl-4-methoxy-6′-(pyrimidin-5-yl)-3′H,5″H-dispiro[cyclohexane-1,2′-indene-1′,4″-oxazol]-5″,5″-d2-2″-amine]
- IC50 [2, 5]: 1.9 nM

Compound: [2H]C([2H])([2H])O[C@H]1CC[C@@]2(Cc3ccc(-c4cncnc4)cc3[C@]23N=C(N)OC3([2H])[2H])C[C@@H]1C [Compound 71, (1S,1′R,3S,4S)-4-(methoxy-d3)-3-methyl-6′-(pyrimidin-5-yl)-3′H,5″H-dispiro[cyclohexane-1,2′-indene-1′,4″-oxazol]-5″,5″-d2-2″-amine]
- IC50 [2, 5]: 1.3 nM

Compound: [2H]C([2H])([2H])O[C@@H]1CC[C@]2(Cc3ccc(-c4cncnc4)cc3[C@]23N=C(N)OC3([2H])[2H])C[C@H]1C [Compound 73, (1R,1′R,3R,4R)-4-(methoxy-d3)-3-methyl-6′-(pyrimidin-5-yl)-3′H,5″H-dispiro[cyclohexane-1,2′-indene-1′,4″-oxazol]-5″,5″-d2-2″-amine]
- IC50 [2, 5]: 6.1 nM

Compound: [2H]C([2H])([2H])O[C@H]1CC[C@@]2(Cc3ccc(-c4cccnc4F)cc3[C@]23N=C(N)OC3([2H])[2H])C[C@@H]1C [Compound 74, (1S,1′R,3S,4S)-6′-(2-fluoropyridin-3-yl)-4-(methoxy-d3)-3-methyl-3′H,5″H-dispiro[cyclohexane-1,2′-indene-1′,4″-oxazol]-5″,5″-d2-2″-amine]
- IC50 [2, 4]: 0.39 nM

Compound: [2H]C1([2H])OC(N)=N[C@]12c1cc(-c3cncnc3)ccc1C[C@]21CC[C@@H](OC)[C@H](CC)C1 [Compound 75, (1R,1′R,3R,4R)-3-ethyl-4-methoxy-6′-(pyrimidin-5-yl)-3′H,5″H-dispiro[cyclohexane-1,2′-indene-1′,4″-oxazol]-5″,5″-d2-2″-amine]
- IC50 [2, 5]: 0.9 nM

Compound: [2H]C1([2H])OC(N)=N[C@]12c1cc(-c3cc(F)cnc3F)ccc1C[C@@]21CC[C@H](OC)[C@@H](C)C1 [Compound 76, (1S,1′R,3S,4S)-6′-(2,5-difluoropyridin-3-yl)-4-methoxy-3-methyl-3′H,5″H-dispiro[cyclohexane-1,2′-indene-1′,4″-oxazol]-5″,5″-d2-2″-amine]
- IC50 [1]: 231 nM
- IC50 [2, 4]: 0.5 nM

Compound: CO[C@H]1CC[C@]2(CC1)Cc1ccc(-c3cncc(C)c3)cc1[C@@]21COC(N)=N1 [Compound 77, (1r,1′R,4R)-4-methoxy-6′-(5-methylpyridin-3-yl)-3′H,5″H-dispiro[cyclohexane-1,2′-indene-1′,4″-oxazol]-2″-amine]
- IC50 [2, 5]: 7.5 nM

Compound: [2H]C([2H])([2H])O[C@@H]1CC[C@]2(Cc3ccc(-c4cccnc4F)cc3[C@]23N=C(N)OC3([2H])[2H])C[C@H]1C [Compound 78, (1R,1′R,3R,4R)-6′-(2-fluoropyridin-3-yl)-4-(methoxy-d3)-3-methyl-3′H,5″H-dispiro[cyclohexane-1,2′-indene-1′,4″-oxazol]-5″,5″-d2-2″-amine]
- IC50 [1]: 895 nM
- IC50 [2, 4]: 1.5 nM

Compound: [2H]C([2H])([2H])O[C@@H]1CC[C@]2(Cc3ccc(-c4cncc(F)c4)cc3[C@]23N=C(N)OC3([2H])[2H])C[C@H]1C [Compound 79, (1R,1′R,3R,4R)-6′-(5-fluoropyridin-3-yl)-4-(methoxy-d3)-3-methyl-3′H,5″H-dispiro[cyclohexane-1,2′-indene-1′,4″-oxazol]-5″,5″-d2-2″-amine]
- IC50 [1]: 207 nM
- IC50 [2, 4]: 2.1 nM

Compound: [2H]C1([2H])OC(N)=N[C@]12c1cc(-c3cc(F)cnc3F)ccc1C[C@]21CC[C@@H](OC)[C@H](C)C1 [Compound 109, {(1R,1′R,3R,4R)-6′-(2,5-difluoropyridin-3-yl)-4-methoxy-3-methyl-3′H,5″H-dispiro[cyclohexane-1,2′-indene-1′,4″-oxazol]-5″,5″-d2-2″-amine}]
- IC50 [1]: 458 nM
- IC50 [2, 4]: 1.8 nM
